# Laboratory results as given in publication PMC2213140 (The Journal of Experimental Medicine, 2005).
# Legend:
# [1] = test system: Jurkat cells transfected with A2K^b cDNA; experiment: In vitro killing assay with CTL from ESO 9V-immunized mice; format: cell-based
# [2] = test system: 1G4 CTL clone with peptide-pulsed T2 target cells; experiment: Live cell video microscopy of CTL lytic granule polarization; format: cell-based; details: T2 cells pulsed with 1 μM peptide
# [3] = test system: 1G4 CTL clone with peptide-pulsed T2 target cells; format: cell-based; details: 30 min at 37°C
# [4] = test system: splenocytes from ESO 9V- or ESO 9C-immunized A2K^b mice; experiment: Ex-vivo IFN-γ ELISPOT assay; format: cell-based, mouse; details: reducing agent TCEP, unpublished data
# [5] = target: HLA-A2 loaded with the NY-ESO-1 157-165 analogue peptide …; experiment: SPR
# [6] = target: HLA-A2 loaded with the wild-type NY-ESO-1 157-165 peptide …; experiment: SPR
substance,measurement,setting,value
SLLMWITQC [ESO 9C],lysis of peptide-loaded target cells by CTL from ESO 9V-immunized mice,[1],capable of lysing target cells loaded with wild-type ESO 9C peptide
same,rate of lytic granule polarization,[2],lytic granule polarization is slow
same,time from initial contact to granule polarization at the synapse,"[2]; 1 h at 37°C, single CTL followed",≤ 17 min
same,time without polarization of lytic granules toward either target,[2]; second CTL (red arrow),> 22 min
same,granule polarization,[3],polarization was poor
same,effect of TCEP on IFN-γ responses to ESO 9C peptide,[4],responses were enhanced in the presence of the reducing agent TCEP
soluble 1G4 TCR (NY-ESO-1 157-165-specific TCR from the 1G4 CTL clone),Kd,[5],5 µM
same,Kd,[6],13.3 µM
